Patent US6552176B2, “Salt forms of 6-n-butylamino-6-deoxy-α-L-sorbofuranose” (G. D. Searle & Co., priority 1990, dated 2003)

Columns and labels:
[1] = Autoclaving of N-butylglucamine reaction solution, HPLC comparison before and after; type: physicochemical; details: 5% (weight/volume) solution, 20 mM MgSO4, pH 5.0; 121° C., 30 P.S.I., 30 minutes
Method: The reaction solution can also be sterilized by autoclaving, as described below. A 5% (weight/volume) solution of N-butylglucamine containing 20 mM MgSO4, at pH 5.0, was autoclaved in a 500 ml shake flask with a silicon closure in place. The conditions for autoclaving were 121° C., 30 P.S.I., for 30 minutes. The pH was checked afterwards and found to be 5.0 at room temperature. There was no visible change in the color or the clarity of the solution, an indication that no caramelization or precipitation had occurred. […] Controls (not autoclaved) indicated at least 90% conversion at 48 hours, also. Autoclaving can therefore be used as a method for sterilizing the reaction solution.

[2] = cited from earlier work

Row | SMILES | stability of solution to autoclaving (HPLC before vs after) [1] | exposure concentration producing nose and throat irritation ([2]; exposure to as little as) | hazard description per Material Safety Data Sheets ([2]; supplier MSDS (Fisher Scientific))
1 | CCCCNC[C@H](O)[C@@H](O)[C@H](O)[C@H](O)CO [N-butylglucamine] | the same | – | –
2 | CCCCN [N-n-butylamine] | – | 5-10 ppm | toxic and a severe eye, skin and mucous membrane irritant
